Data on 36 molecules can be found in patent US12593845B2 (priority 2019, dated 2026).

Experiment [1] concerns apple scab pathogen (Venturia inaequalis). The experiment in a line: Apple scab control test. The settings on record: 336 h, 125 ppm drug solution sprayed onto apple seedlings (Orin), lesion area ratio 2 weeks after inoculation. The format is in vivo. How it is done:
(§1) 5 parts by weight of the dihydropyrimidine compound of the present invention, 93.5 parts by weight of N,N-dimethylformamide, and 1.5 parts by weight of polyoxyethylene sorbitan monolaurate (TWEEN® 20) were mixed and dissolved to obtain an emulsion (I) including 5% of an active ingredient.
(§2) The control value was calculated by the following expression. Control value (%)=100−{lesion area ratio in treated group/lesion area ratio in untreated group}×100 [Expression 1]
Water was added to the emulsion (I) such that the concentration of the dihydropyrimidine compound reached 125 ppm to dissolve the emulsion, and a drug solution was obtained. Subsequently, the drug solution was sprayed onto apple seedlings (variety: “Orin”, leaf stage: 3 to 4) cultivated in seedling pots. After air drying, the seedlings were inoculated with conidiospores of an apple scab pathogen (Venturia inaequalis) (treated group). As a control, apple seedlings that were not sprayed with the drug solution were inoculated in the same manner (untreated group). The seedlings were left to stand in a humidified room at 20° C. using a 12 hour light/dark cycle.
On the day 2 weeks after the inoculation, the leaves of the apple seedlings were visually observed to determine the lesion area ratio, and the control value was calculated.

The next experiment deals with Aspergillus niger. The experiment in a line: Antimicrobial test against Aspergillus niger. The format is cell-based. The settings on record: 96 h, Vogel medium, 25° C., 4 days in the dark, turbidity at 405 nm, read-out: growth inhibition rate. Here is the method: Spores of Aspergillus niger were added to and dispersed in a Vogel medium, and a dihydropyrimidine compound dissolved in dimethyl sulfoxide was added and mixed thereto at 25 ppm. The resulting solution was dispensed onto a 96-well microplate and cultivated in the dark at 25° C. for 4 days.
After the cultivation, the turbidity at a wavelength of 405 nm was measured by a microplate reader and compared with that in the untreated case to determine the growth inhibition of Aspergillus niger (%) was determined.

For experiment [2], the system named is wheat powdery mildew pathogen (Erysiphe graminis f. sp. tritici). The experiment in a line: Wheat powdery mildew control test. It is filed as in vivo. The settings on record: Blumeria graminis, 144 h; 125 ppm drug solution sprayed onto wheat seedlings (Chihoku); lesion area ratio 6 days after inoculation. How it is done: as §1, §2
Water was added to the emulsion (I) such that the concentration of the dihydropyrimidine compound reached 125 ppm to dissolve the emulsion, and a drug solution was obtained. Subsequently, the drug solution was sprayed onto wheat seedlings (variety: “Chihoku”, leaf stage: 1 to 2) cultivated in seedling pots. After air drying, conidiospores of a wheat powdery mildew pathogen (Erysiphe graminis f. sp. tritici) were sprinkled thereon for inoculation (treated group). As a control, wheat seedlings that were not sprayed with the drug solution were inoculated in the same manner as described above (untreated group). The seedlings were left to stand in a greenhouse at 20° C.
On the 6 days after the inoculation, the leaves of the wheat seedlings were visually observed to determine the lesion area ratio, and the control value was calculated.

Experiment [3] shares this test system. The experiment in a line: Wheat powdery mildew seed treatment test. The settings on record: Blumeria graminis, 168 h; seed treatment 100 g/100 kg wheat seeds (Chihoku); inoculation after 8 to 10 days; lesion area ratio 7 days after inoculation. It is filed as in vivo. How it is done:
as §1, §2
The emulsion (I) was used to treat seeds such that (weight of dihydropyrimidine compound)/(weight of seeds) reached 100 g/100 kg based on the wheat seeds (variety: “Chihoku”). These seeds were disseminated in pots, and after 8 to 10 days, conidiospores of a wheat powdery mildew pathogen (Erysiphe graminis f. sp. tritici) were sprinkled thereon for inoculation (treated group). As a control, wheat seedlings that were not treated with the drug were inoculated in the same manner as described above (untreated group). The seedlings were left to stand in a greenhouse at 20° C.
On the 7 days after the inoculation, the leaves of the wheat seedlings were visually observed to determine the lesion area ratio, and the control value was calculated.

Usually pest or weed control stands for how far the test organism was held down. As a reminder, the inhibition is how much of the control response was suppressed. Regarding `CCON=Cc1cn(CC(OCCC#N)c2cc(F)ccc2OC)c(=O)n(CC(C)(C)C(=O)NC(C)C)c1=O` (centres unmarked) [A-7], the pest or weed control at 125 ppm in experiment [1] is ≥ 75%. The inhibition at 25 ppm with Aspergillus niger was ≥ 50%. For `CCON=Cc1cn(CC(OCCC#N)c2cc(F)ccc2OC)c(=O)n(CCNC(=O)OC(C)(C)C)c1=O` (centres unmarked) [A-18], the pest or weed control at 125 ppm in experiment [1] and in experiment [2] was ≥ 75% in each case. For `CCON=C(C)c1cn(CC(O)c2cc(F)ccc2OC)c(=O)n(C(C)C(=O)NC(C)C)c1=O` (centres unmarked) [A-31], the pest or weed control at 125 ppm in experiment [1] and in experiment [2] was ≥ 75% each time. As to `CCO/N=C(\C)c1cn(CC(O)c2cc(F)ccc2OC)c(=O)n(CCNC(=O)C(C)C)c1=O` (centres unmarked) [A-37, N-(2-(5-(1-(ethoxyimino)ethyl)-3-(2-(5-fluoro-2-methoxyphenyl)-2-hydroxyethyl)-2,6-dioxo-3,6-dihydropyrimidin-1(2H)-yl)ethyl)isobutyramide], the pest or weed control at 125 ppm in experiment [1] is ≥ 75%. Besides, the inhibition at 25 ppm in the experiment on Aspergillus niger was ≥ 50%. Consider `CCO/N=C(\C)c1cn(CC(OCCC#N)c2cc(F)ccc2OC)c(=O)n(CCNC(=O)C(C)C)c1=O` (centres unmarked) [A-38, N-(2-(3-(2-(2-cyanoethoxy)-2-(5-fluoro-2-methoxyphenyl)ethyl)-5-(1-(ethoxyimino)ethyl)-2,6-dioxo-3,6-dihydropyrimidin-1(2H)-yl)ethyl)isobutyramide], for which the pest or weed control at 125 ppm in experiment [1] and in experiment [2] was ≥ 75% each time. In the experiment on Aspergillus niger, the inhibition at 25 ppm is ≥ 50%. Consider `CCO/N=C(\C)c1cn(CC(O)c2cc(F)ccc2OC)c(=O)n(C[C@H](C)NC(=O)C(C)C)c1=O` (some centres unmarked) [A-42], for which the pest or weed control at 125 ppm in experiment [1] and in experiment [2] was ≥ 75% in each case. Also, the inhibition at 25 ppm with Aspergillus niger is ≥ 50%.

`CCO/N=C(\C)c1cn(/C=C(\OC(=O)C(C)C)c2cc(F)ccc2OC)c(=O)n(C[C@H](C)NC(=O)C(C)C)c1=O` [A-46]: the pest or weed control at 125 ppm in experiment [1] and in experiment [2] was ≥ 75% each time. With `C/C(=N\OC(C)C)c1cn(CC(O)c2ccccc2OC(C)C)c(=O)n(C[C@H](C)NC(=O)C(C)C)c1=O` (some centres unmarked) [A-49], the pest or weed control at 125 ppm in experiment [1] and in experiment [2] was ≥ 75% in each case. On to `CCOc1ccccc1C(O)Cn1cc(/C(C)=N/OC(C)C)c(=O)n(C[C@H](C)NC(=O)C(C)C)c1=O` (some centres unmarked) [A-51], for which the pest or weed control at 125 ppm in experiment [1] and in experiment [2] was ≥ 75% in each case. Further, the inhibition at 25 ppm in the experiment with Aspergillus niger was ≥ 50%. For `COc1ccc(F)cc1C(O)Cn1cc(C=NOC(C)C)c(=O)n(C(C)C(=O)N2CCOCC2)c1=O` (centres unmarked) [A-71], the pest or weed control at 125 ppm in experiment [1] and in experiment [2] was ≥ 75% each time. `COc1ccc(F)cc1C(O)Cn1cc(C=NOC(C)C)c(=O)n(C(C)CNC(=O)C(C)C)c1=O` (centres unmarked) [A-79]: the pest or weed control at 125 ppm in experiment [1] and in experiment [2] was ≥ 75% each time. Moreover, the inhibition at 25 ppm in the experiment on Aspergillus niger was ≥ 50%. For the molecule `COc1ccc(F)cc1C(Cn1cc(C=NOC(C)C)c(=O)n(C(C)C(=O)N2CCC2)c1=O)OCCC#N` (centres unmarked) [A-81], the pest or weed control at 125 ppm in experiment [1] and in experiment [2] was ≥ 75% each time. Turning to `COc1ccc(F)cc1C(Cn1cc(C=NOC(C)C)c(=O)n(CC(=O)NC(C)C)c1=O)OCCC#N` (centres unmarked) [A-84], the pest or weed control at 125 ppm in experiment [1] and in experiment [2] was ≥ 75% each time. Consider `COc1ccc(F)cc1C(O)Cn1cc(C=NOC(C)C)c(=O)n(C(C)C(=O)N2CCC2)c1=O` (centres unmarked) [A-86], for which the pest or weed control at 125 ppm in experiment [2] was ≥ 75%. Turning to `CCO/N=C(\C)c1cn(CC(OC(C)=O)c2cc(F)ccc2OC)c(=O)n(CCNC(=O)C(C)C)c1=O` (centres unmarked) [A-88], in experiment [1], the pest or weed control at 125 ppm is ≥ 75%. Also, the inhibition at 25 ppm with Aspergillus niger is ≥ 50%. For the molecule `COc1ccc(F)cc1C(O)Cn1cc(C=NOC(C)C)c(=O)n(C(C)C(=O)N2CCCCC2)c1=O` (centres unmarked) [A-90], the pest or weed control at 125 ppm in experiment [1] and in experiment [2] was ≥ 75% each time. Besides, the inhibition at 25 ppm in the experiment with Aspergillus niger was ≥ 50%. On to `CCON=Cc1cn(CC(O)c2cc(F)ccc2OC)c(=O)n(CC(C)(C)NC(=O)C(C)C)c1=O` (centres unmarked) [A-92], for which the pest or weed control at 125 ppm in experiment [2] was ≥ 75%. On to `CCON=Cc1cn(CC(O)c2cc(F)ccc2OC)c(=O)n(C(C)C(=O)NC(C)C)c1=O` (centres unmarked) [A-94], for which the pest or weed control at 125 ppm in experiment [1] and in experiment [2] was ≥ 75% each time.

Consider `CCO/N=C(\C)c1cn(CC(OC)c2cc(F)ccc2OC)c(=O)n(CCNC(=O)C(C)C)c1=O` (centres unmarked) [A-96], for which the pest or weed control at 125 ppm in experiment [1] and in experiment [2] was ≥ 75% each time. For the same molecule, in the experiment with Aspergillus niger, the inhibition at 25 ppm was ≥ 50%. On to `CCO/N=C(\C)c1cn(CC(OC)c2cc(F)ccc2OC)c(=O)n(CCN(C)C(=O)C(C)C)c1=O` (centres unmarked) [A-97], for which the pest or weed control at 125 ppm in experiment [1] and in experiment [2] was ≥ 75% each time. For the same molecule, the inhibition at 25 ppm in the experiment on Aspergillus niger was ≥ 50%. Regarding `COc1ccc(F)cc1C(Cn1cc(/C(C)=N/OC(C)C)c(=O)n(CCNC(=O)C(C)C)c1=O)OCCC#N` (centres unmarked) [A-101], the pest or weed control at 125 ppm in experiment [1] and in experiment [2] was ≥ 75% throughout. Further, in the experiment on Aspergillus niger, the inhibition at 25 ppm was ≥ 50%. Take `COc1ccc(F)cc1C(O)Cn1cc(/C(C)=N/OC(C)C)c(=O)n(CCNC(=O)C(C)C)c1=O` (centres unmarked) [A-102]: the pest or weed control at 125 ppm in experiment [1] and in experiment [2] was ≥ 75% each time. Moreover, the inhibition at 25 ppm with Aspergillus niger is ≥ 50%. Consider `CCON=Cc1cn(CCc2ccccc2OC)c(=O)n(C(C)C(=O)N2CCCC2)c1=O` (centres unmarked) [A-104], for which the pest or weed control at 125 ppm in experiment [1] was ≥ 75%. Take `CCON=Cc1cn(CCc2ccccc2OC)c(=O)n(C(C)C(=O)N2CCCCC2)c1=O` (centres unmarked) [A-105]: the pest or weed control at 125 ppm in experiment [1] and in experiment [2] was ≥ 75% each time. Regarding `CCON=Cc1cn(CCc2ccccc2OC)c(=O)n(C(C)C(=O)NC(C)C)c1=O` (centres unmarked) [A-107], the pest or weed control at 125 ppm in experiment [1] is ≥ 75%.

In the case of `CCO/N=C(\C)c1nn(CC(O)c2cc(F)ccc2OC)c(=O)n(C[C@H](C)NC(=O)C(C)C)c1=O` (some centres unmarked) [B-1], the pest or weed control at 125 ppm in experiment [2] was ≥ 75%. On to `CCO/N=C(\C)c1nn(CC(OCCC#N)c2cc(F)ccc2OC)c(=O)n(C(C)C(=O)NC(C)C)c1=O` (centres unmarked) [B-3], for which the pest or weed control at 125 ppm in experiment [1] and in experiment [2] was ≥ 75% in each case. Turning to `CCCn1c(=O)c(/C(C)=N/OC(C)C)cn(CC(O)c2cc(F)ccc2OC)c1=O` (centres unmarked) [B-7], the pest or weed control at 125 ppm in experiment [1] is ≥ 75%. Still for that read-out and setting: with `COc1ccccc1CCn1cc(/C(N)=N/OC(C)C)c(=O)n(CCc2ccccc2OC)c1=O` [B-8] the figure was ≥ 75%; with `CCO/N=C(\N)c1cn(CCc2ccccc2OC)c(=O)n(CCc2ccccc2OC)c1=O` [B-9], ≥ 75%. In the case of `CC[C@@H](Cn1c(=O)c(/C(C)=N/OC(C)C)cn(CC(O)c2cc(F)ccc2OC)c1=O)NC(=O)N(C)C` (some centres unmarked) [C-54], in experiment [3], the pest or weed control at 100 g/100 kg seed was ≥ 75%. The inhibition at 25 ppm with Aspergillus niger is ≥ 50%.

In the case of `CCC(=O)N[C@@H](CC)Cn1c(=O)c(/C(C)=N/OC(C)C)cn(CC(O)c2cc(F)ccc2OC)c1=O` (some centres unmarked) [C-56], in experiment [3], the pest or weed control at 100 g/100 kg seed was ≥ 75%. Besides, the inhibition at 25 ppm in the experiment with Aspergillus niger is ≥ 50%. Consider `COc1ccccc1C(O)Cn1cc(/C(C)=N/OC(C)C)c(=O)n(C[C@@H](NC(=O)c2ccccc2)C(C)C)c1=O` (some centres unmarked) [C-85], for which the pest or weed control at 100 g/100 kg seed in experiment [3] was ≥ 75%. `CCN(C)C(=O)N[C@H](Cn1c(=O)c(/C(C)=N/OC(C)C)cn(CC(O)c2cc(F)ccc2OC)c1=O)C(C)C` (some centres unmarked) [C-89]: the pest or weed control at 100 g/100 kg seed in experiment [3] is ≥ 75%. Further, the inhibition at 25 ppm with Aspergillus niger is ≥ 50%.

Take `COc1ccccc1C(O)Cn1cc(/C(C)=N/OC(C)C)c(=O)n(C[C@@H](NC(=O)CC(C)C)C(C)C)c1=O` (some centres unmarked) [C-97]: the pest or weed control at 100 g/100 kg seed in experiment [3] is ≥ 75%. Take `COc1ccc(F)cc1C(O)Cn1cc(/C(C)=N/OC(C)C)c(=O)n(C[C@@H](NC(=O)C(C)(C)C)C(C)C)c1=O` (some centres unmarked) [C-112]: the pest or weed control at 100 g/100 kg seed in experiment [3] was ≥ 75%. In the experiment with Aspergillus niger, the inhibition at 25 ppm was ≥ 50%.
